Assay results published in patent US4831046A, “Tetrazole derivatives of 1,3-dioxane and thromboxane A2 antigonizing use thereof” (Imperial Chemical Industries PLC, priority 1985, dated 1989).

Tests used:
rabbit aortal strip = rabbit aortal strip model (agonist TXA2 or U46619); assay type: cell-based; settings: test (a), TXA2 antagonism
Experimental: (§1) As stated earlier, the compounds of formula I are antagonists of one or more of the actions of TXA2, for example certain of its actions on blood platelets, the vasculature and/or the lung.
(a) The rabbit aortal strip model devised by Piper and Vane (Nature, 1969, 223, 29-35) using as agonist a freshly prepared sample of TXA2, generated by addition of arachidonic acid (25 μg) to citrated, platelet rich rabbit plasma (250 μl) and allowing the mixture to aggregate fully over 90 seconds before use; alternatively the TXA2 mimetic agent known as U46619 (described by R L Jones et alia, in "Chemistry, Biochemistry and Pharmacological Activity of Prostanoids" edited by S M Roberts and F Scheinmann, at page 211, Pergamon Press, 1979) may be used as the agonist;

[1] = molecular target: T1, human, citrated platelet-rich plasma (Homo sapiens, UniProt P21731); test: blood platelet aggregation test (U46619, based on Born); assay type: cell-based; settings: test (b), averaged over several concentrations
T1 construct: aggregating human, citrated platelet-rich plasma by addition of the TXA2 mimetic agent U46619; endogenous in cells; host or cells: human platelets in citrated platelet-rich plasma
T1 sequence (P21731 1-343): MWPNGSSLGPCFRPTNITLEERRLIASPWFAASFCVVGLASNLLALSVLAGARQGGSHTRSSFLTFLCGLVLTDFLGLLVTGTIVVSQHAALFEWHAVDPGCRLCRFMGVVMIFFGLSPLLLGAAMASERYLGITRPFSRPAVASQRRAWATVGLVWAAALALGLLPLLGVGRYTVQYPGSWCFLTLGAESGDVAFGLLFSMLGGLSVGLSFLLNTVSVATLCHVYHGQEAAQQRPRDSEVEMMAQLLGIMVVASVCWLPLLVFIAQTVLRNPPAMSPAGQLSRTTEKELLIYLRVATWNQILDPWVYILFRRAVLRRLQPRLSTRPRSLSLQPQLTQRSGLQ
From the text: as §1
(b) a blood platelet aggregation test based on that described by Born (Nature, 1962, 194, 927-929) and involving:
(i) aggregating human, citrated platelet-rich plasma by addition of the TXA2 mimetic agent U46619 so that a dose-response curve is generated;
(ii) generating a dose-response curve for U46619 stimulated platelet aggregation in the presence of increasing amounts of test compound (generally in the range, 10^-5 M to 10^-10 M); and
(iii) calculating a KB value indicating potency of TXA2 antagonism for the test compound averaged over several concentrations, from the calculated 50% response value for U46619 aggregation in the presence and absence of test compound; and […]

[2] = test system: U46619 induced bronchoconstriction; test: bronchoconstriction test, U46619 induced, Konzett-Rossler anaesthetised guinea-pig model; assay type: in vivo; settings: test (c), 50 μg/kg p.o., 50% response
From the text: as §1
(c) a bronchoconstriction test involving measuring the inhibition by a test compound of the bronchoconstriction induced in the Konzett-Rossler, anaesthetised guinea-pig model (as modified by Collier and James, Brit. J. Pharmacol., 1967, 30, 283-307) by intravenous administration of the TXA2 mimetic agent, U46619 and involving:
(i) obtaining a cumulative dose-response curve to U46619 induced bronchoconstriction by intravenous administration of constant volumes of increasing concentrations of U46619 (0.2-4 μg/kg) in physiological saline solution and expressing bronchoconstriction as the maximum of that theoretically obtainable with no air flow to the test animal;
(ii) generating a cumulative dose-response curve to U46619 induced bronchoconstriction at 30 minute intervals for 3 hours after oral dosing of test compound; and
(iii) calculating a dose-ratio for the test compound (that is the ratio of concentration of U46619 required to cause 50% bronchoconstriction in the presence and absence of test compound) indicating the potency of TXA2 antagonism.

Kb [1]: 45.6 nM
SMILES: CC(C)[C@@H]1OC[C@H](C/C=C\CCc2nn[nH]n2)[C@H](c2ccccc2O)O1 (relative stereo) [Example 5, 5-[3(Z)-5-([2,4,5-cis]-4-o-hydroxyphenyl-2-isopropyl-1,3-dioxan-5-yl)pentenyl]-1(H)-tetrazole]
pA2 (rabbit aortal strip): 7.32
dose ratio [2]: 25
